Data from patent US20220211652A1, “USE OF AN RXR AGONIST IN TREATING HER2+ CANCERS” (Io Therapeutics, Inc, priority 2019, published 2022).

Tests used:
RARβ = RARβ (Homo sapiens, UniProt P10826); conditions: β isoform
RARγ = RARγ (Homo sapiens, UniProt P13631); conditions: γ isoform
RARα = RARα (Homo sapiens, UniProt P10276); conditions: α isoform
PPAR/RXR = experiment: Activation of permissive heterodimer PPAR/RXR; assay type: cell-based
LXR/RXR = experiment: Activation of permissive heterodimer LXR/RXR; assay type: cell-based
RXR homodimers = experiment: Activation of RXR homodimers; assay type: cell-based
MCF7 cells = experiment: Growth inhibition of MCF7 breast cancer cells, DAPI nuclei count; assay type: cell-based; conditions: Her2− MCF7 cell line, FIG. 1A; IRX4204 10-1000 nM, trastuzumab 0.1-10 μg/ml
Text: (§1) MCF7 is an ER^+ PR^+ Her2^− cell line. SkBr3 is an ER^− PR^− Her2^+ cell line. […] After a further 6 days, the cells were fixed with 4% paraformaldehyde in phosphate buffered saline (PBS).
(§2) Additionally the panel of breast cancer cell lines was expanded to also include the ER^+ PR^+ Her2^+ cell line BT474 and the ER^+ PR^− Her2^+ cell line MDA-MB-361.

RAR/RXR = experiment: Activation of non-permissive heterodimer RAR/RXR; assay type: cell-based
SkBr3 cells = experiment: Growth inhibition of SkBr3 breast cancer cells, DAPI nuclei count; assay type: cell-based; conditions: Her2+ SkBr3 cell line, FIG. 1B; IRX4204 10-1000 nM, trastuzumab 0.1-10 μg/ml
Text: as §1, §2

Nurr1/RXR heterodimer = experiment: Activation of permissive heterodimer Nurr1/RXR; assay type: cell-based
FXR/RXR = experiment: Activation of permissive heterodimer FXR/RXR; assay type: cell-based
[1] = test system: PPAR/RXR, FXR/RXR, or LXR/RXR; conditions: cited from earlier work

Sequence of RARβ (P10826 whole entry, species assumed, canonical isoform): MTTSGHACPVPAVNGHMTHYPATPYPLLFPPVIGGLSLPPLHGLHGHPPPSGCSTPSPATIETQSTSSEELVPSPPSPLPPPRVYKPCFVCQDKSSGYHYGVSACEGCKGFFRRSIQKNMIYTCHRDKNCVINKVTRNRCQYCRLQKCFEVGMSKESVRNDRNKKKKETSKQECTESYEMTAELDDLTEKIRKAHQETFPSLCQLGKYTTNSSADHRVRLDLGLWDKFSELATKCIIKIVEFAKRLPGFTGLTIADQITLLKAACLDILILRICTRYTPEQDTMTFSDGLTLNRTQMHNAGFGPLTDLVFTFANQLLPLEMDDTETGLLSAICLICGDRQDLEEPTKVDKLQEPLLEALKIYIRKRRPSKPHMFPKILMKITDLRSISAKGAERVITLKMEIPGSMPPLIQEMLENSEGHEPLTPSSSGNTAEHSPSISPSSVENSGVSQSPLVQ
Sequence of RARγ (P13631 whole entry, species assumed, canonical isoform): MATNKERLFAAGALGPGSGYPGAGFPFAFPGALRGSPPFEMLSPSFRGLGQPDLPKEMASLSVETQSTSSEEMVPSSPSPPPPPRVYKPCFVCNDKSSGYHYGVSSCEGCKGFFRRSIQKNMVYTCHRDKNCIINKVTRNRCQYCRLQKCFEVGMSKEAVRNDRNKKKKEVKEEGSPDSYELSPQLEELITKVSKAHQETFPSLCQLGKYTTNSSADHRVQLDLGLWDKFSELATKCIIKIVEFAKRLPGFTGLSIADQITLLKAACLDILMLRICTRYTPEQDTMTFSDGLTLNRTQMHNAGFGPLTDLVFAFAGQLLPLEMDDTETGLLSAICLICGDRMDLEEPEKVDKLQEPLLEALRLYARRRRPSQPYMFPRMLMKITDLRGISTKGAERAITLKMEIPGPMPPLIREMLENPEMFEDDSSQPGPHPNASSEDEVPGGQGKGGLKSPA
Sequence of RARα (P10276 whole entry, species assumed, canonical isoform): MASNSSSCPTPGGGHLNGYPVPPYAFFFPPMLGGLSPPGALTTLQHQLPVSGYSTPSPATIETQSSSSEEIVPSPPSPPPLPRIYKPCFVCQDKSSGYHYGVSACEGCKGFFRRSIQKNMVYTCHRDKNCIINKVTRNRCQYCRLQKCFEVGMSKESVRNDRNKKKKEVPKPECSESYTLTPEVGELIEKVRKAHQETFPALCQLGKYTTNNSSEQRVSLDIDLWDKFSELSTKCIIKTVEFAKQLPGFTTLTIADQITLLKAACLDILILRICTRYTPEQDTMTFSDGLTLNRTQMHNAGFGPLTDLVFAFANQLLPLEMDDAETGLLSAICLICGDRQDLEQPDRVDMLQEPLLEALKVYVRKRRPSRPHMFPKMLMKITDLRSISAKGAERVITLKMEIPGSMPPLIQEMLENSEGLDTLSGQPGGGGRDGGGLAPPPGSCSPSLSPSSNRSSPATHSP

SMILES	RAR EC10 (concentration effective to cause a 10% of maximal activation of the RAR) (RARβ)	RAR EC10 (concentration effective to cause a 10% of maximal activation of the RAR) (RARγ)	RAR EC10 (concentration effective to cause a 10% of maximal activation of the RAR) (RARα)	activation of PPAR/RXR (in words) (PPAR/RXR)	activation of LXR/RXR (in words) (LXR/RXR)	activation of RXR homodimers (in words) (RXR homodimers)	growth inhibitory effect (in words) (MCF7 cells)	activation of non-permissive heterodimers such as RAR/RXR (in words) (RAR/RXR)	growth inhibitory effect (in words) (SkBr3 cells)	activation of the Nurr1/RXR heterodimer (in words) (Nurr1/RXR heterodimer)	activation of FXR/RXR (in words) (FXR/RXR)	activation of one or more of PPAR/RXR, FXR/RXR, or LXR/RXR (in words) [1]
CC(/C=C/[C@@H]1C[C@]1(C)c1ccc2c(c1)C(C)(C)CCC2(C)C)=C\C(=O)O [IRX4204, 3,7-dimethyl-6(S),7(S)-methano,7-[1,1,4,4-tetramethyl-1,2,3,4-tetrahydron-aphth-7-yl]2(E), 4(E) heptadienoic acid]	200 nM	200 nM	300 nM	does not activate	does not activate	specifically activate	neither agent had more than marginal effect	does not activate	moderate growth inhibitory effect	specifically activates	does not activate	–
Cc1cc2c(cc1C1(c3ccc(C(=O)O)cn3)CC1)C(C)(C)CCC2(C)C [LGD268]	–	–	–	–	–	–	–	–	–	–	–	activates one or more
